# Experimental data: patent US9115101B2 (Genentech, Inc., priority 2012, dated 2015)
# Target: T1, RORc ligand binding domain (Homo sapiens, UniProt P51449)
# T1 construct: host or cells: E. coli
# T1 sequence (P51449 269-508 limits assumed): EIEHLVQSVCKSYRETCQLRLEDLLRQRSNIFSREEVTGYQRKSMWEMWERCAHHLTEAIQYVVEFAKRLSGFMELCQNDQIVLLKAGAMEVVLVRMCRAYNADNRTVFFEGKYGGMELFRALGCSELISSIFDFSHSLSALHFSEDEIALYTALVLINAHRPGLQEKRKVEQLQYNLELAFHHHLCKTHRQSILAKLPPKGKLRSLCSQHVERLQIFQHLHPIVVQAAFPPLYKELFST
# Assay: In Vitro RORc Ligand Binding Assay (25-[3H]hydroxycholesterol radioligand filtration)
# Details: In Vitro RORc Ligand Binding Assay; Table 4; read-out: RORc IC50
row,Structure (SMILES),IC50 [nM]
1,"CNC(=O)[C@H]1CN(c2ccc(CN3[C@@H](C)CCC(c4ccccc4)S3(=O)=O)c(F)c2)CCN1C(C)=O (stereo partly drawn) [Example 383, (R)-1-Acetyl-4-[3-fluoro-4-((3S)-methyl-1,1-dioxo-6-phenyl-[1,2]thiazinan-2-ylmethyl)-phenyl]-piperazine-2-carboxylic acid methylamide]",705
2,"CC(=O)N1CCN(c2cnc(CN3[C@@H](C)CCC(c4ccccc4)S3(=O)=O)cn2)CC1 (single isomer, unassigned) [Example 178]",1430
3,"CC(=O)N1CCN(c2ccc(CN3[C@@H](C)CCC(c4ccccc4)S3(=O)=O)cc2C#N)CC1 (single isomer, unassigned) [Example 113]",2750
4,"CC(=O)N1CCN(c2ccc(CN3[C@@H](C)CC[C@@H](c4ccccc4Cl)S3(=O)=O)c(F)c2)CC1 (single isomer, unassigned) [Example 204]",52
5,"C[C@H]1CCC(c2ccccc2)S(=O)(=O)N1Cc1ccc(OC2CCS(=O)(=O)CC2)cc1F (single isomer, unassigned) [Example 39]",119
6,"CC(=O)N1CCN(c2ccc(CN3[C@H](C)COCC(c4ccccc4)S3(=O)=O)c(F)c2)CC1 (single isomer, unassigned) [Example 26]",2000
7,"C[C@H]1CCC(c2ccccc2)S(=O)(=O)N1Cc1ccc(N2CCN3C(=O)CNC(=O)[C@H]3C2)cc1F (stereo partly drawn) [Example 396, (R)-8-[3-Fluoro-4-((3S)-methyl-1,1-dioxo-6-phenyl-[1,2]thiazinan-2-ylmethyl)-phenyl]-hexahydro-pyrazino[1,2-a]pyrazine-1,4-dione]",3250
8,"C[C@H]1CCC(c2ccccc2)S(=O)(=O)N1Cc1ccc(C(=O)N2CCCOCC2)cc1 (stereo partly drawn) [Example 282, [4-((3S)-Methyl-1,1-dioxo-6-phenyl-[1,2]thiazinan-2-ylmethyl)-phenyl]-[1,4]oxazepan-4-yl-methanone]",5060
9,"CC(=O)N1CCN(c2ccc(CN3[C@@H](C)CCC(c4ccccc4)S3(=O)=O)c(C)c2)CC1 (single isomer, unassigned) [Example 131]",501

# Other lines, results leading:
row,IC50 [nM],Structure (SMILES)
1,30,"C[C@H]1CCC(c2ccccc2)S(=O)(=O)N1Cc1ccc(N[C@H]2CC[C@H](C#N)CC2)cc1F (single isomer, unassigned) [Example 112]"
2,4,"C[C@H]1CCC(c2ccccc2)S(=O)(=O)N1Cc1ccc(N2CCC(c3cn[nH]c3)CC2)cc1F (single isomer, unassigned) [Example 242]"
3,3,"CC(=O)N1CCN(c2ccc(CN3C(C)CCCC(c4ccccc4)S3(=O)=O)c(F)c2)CC1 (single isomer, unassigned) [Example 327, 1-{4-[3-Fluoro-4-(3-methyl-1,1-dioxo-7-phenyl-[1,2]thiazepan-2-ylmethyl)-phenyl]-piperazin-1-yl}-ethanone]"
4,31,"COC(=O)[C@H]1CN(c2ccc(CN3[C@@H](C)CCC(c4ccccc4)S3(=O)=O)c(F)c2)CCN1C(C)=O (stereo partly drawn) [Example 260, 1-Acetyl-4-[3-fluoro-4-((3S)-methyl-1,1-dioxo-6-phenyl-[1,2]thiazinan-2-ylmethyl)-phenyl]-piperazine-2-carboxylic acid methyl ester]"
5,20,"C[C@@H]1CCC(c2ccccc2)S(=O)(=O)N1Cc1ccc(OC2CCN(S(C)(=O)=O)CC2)cc1 (stereo partly drawn) [Example 52, (3R)-3-Methyl-2-(4-((1-(methylsulfonyl)piperidin-4-yl)oxy)benzyl)-6-phenyl-1,2-thiazinane 1,1-dioxide]"
6,29,"CC(=O)N1CCN(c2ccc(CN3[C@@H](C(C)C)CCC(c4ccccc4)S3(=O)=O)c(F)c2)CC1 (single isomer, unassigned) [Example 247]"
7,8,"CS(=O)(=O)N1CCC(Nc2ccc(CN3CCCCC(c4ccccc4)S3(=O)=O)c(F)c2)CC1 (single isomer, unassigned) [Example 345, [4-(1,1-Dioxo-7-phenyl-[1,2]thiazepan-2-ylmethyl)-3-fluoro-phenyl]-(1-methanesulfonyl-piperidin-4-yl)-amine]"
8,13,"COC(=O)[C@@H]1CN(C(C)=O)CCN1c1ccc(CN2[C@@H](C)CCC(c3ccccc3)S2(=O)=O)c(F)c1 (stereo partly drawn) [Example 392, (S)-4-Acetyl-1-[3-fluoro-4-((3S)-methyl-1,1-dioxo-6-phenyl-[1,2]thiazinan-2-ylmethyl)-phenyl]-piperazine-2-carboxylic acid methyl ester]"
9,42,"C[C@H]1CCC(c2ccccc2)S(=O)(=O)N1Cc1ccc(N2CCC(c3ncno3)CC2)cc1F (single isomer, unassigned) [Example 219]"
10,40,"C[C@H]1CCC(c2ccccc2)S(=O)(=O)N1Cc1ccc(N2CCC(c3ncon3)CC2)cc1F (stereo partly drawn) [Example 235, 2-[2-Fluoro-4-(4-[1,2,4]oxadiazol-3-yl-piperidin-1-yl)-benzyl]-(3S)-methyl-6-phenyl-[1,2]thiazinane 1,1-dioxide]"
11,31,"CO[C@@H](C)C(=O)N1CCN(c2ccc(CN3[C@@H](C)CCC(c4ccccc4)S3(=O)=O)c(F)c2)CC1 (single isomer, unassigned) [Example 76]"
12,3,"C[C@H]1CCC(c2ccccc2)S(=O)(=O)N1Cc1ccc(N2CCC(c3cn[nH]c3)CC2)cc1F (single isomer, unassigned) [Example 243]"
13,4,"CS(=O)(=O)N1CCC(Nc2ccc(CN3CCCCC(c4ccccc4)S3(=O)=O)cc2)CC1 (single isomer, unassigned) [Example 326, [4-(1,1-Dioxo-7-phenyl-[1,2]thiazepan-2-ylmethyl)-phenyl]-(1-methanesulfonyl-piperidin-4-yl)-amine]"
14,18,C[C@H]1CCC(c2ccccc2)S(=O)(=O)N1Cc1ccc(N2CCC(C(=O)NC#N)CC2)cc1F (some centres unmarked) [Example 125]

# Same assay, conditions: read-out: RORc IC50
row,IC50 [nM],Structure (SMILES)
1,9,"CC1CN(S(C)(=O)=O)CCC1Nc1ccc(CN2[C@@H](C)CCC(c3ccccc3)S2(=O)=O)c(F)c1 (stereo partly drawn) [Example 453, [3-Fluoro-4-((3S)-methyl-1,1-dioxo-6-phenyl-[1,2]thiazinan-2-ylmethyl)-phenyl]-(1-methanesulfonyl-3-methyl-piperidin-4-yl)-amine]"
2,171,"C[C@H]1CCC(c2ccccc2)S(=O)(=O)N1Cc1ccc(N2CCN(c3cnccn3)CC2)cc1F (stereo partly drawn) [Example 441, 4-[3-Fluoro-4-((3S)-methyl-1,1-dioxo-6-phenyl-[1,2]thiazinan-2-ylmethyl)-phenyl]-3,4,5,6-tetrahydro-2H-[1,2′]bipyrazinyl]"
3,182,C[C@H]1CCC(c2ccccc2)S(=O)(=O)N1Cc1ccc(N2CCn3c(cnc3C#N)C2)cc1F (some centres unmarked)
4,368,"COC(=O)[C@H]1CN(C(C)=O)CCN1c1ccc(CN2[C@@H](C)CCC(c3ccccc3)S2(=O)=O)c(F)c1 (stereo partly drawn) [Example 416, (R)-4-Acetyl-1-[3-fluoro-4-((3S)-methyl-1,1-dioxo-6-phenyl-[1,2]thiazinan-2-ylmethyl)-phenyl]-piperazine-2-carboxylic acid methyl ester]"
5,28,"C[C@H]1CCC(c2ccccc2)S(=O)(=O)N1Cc1ccc(N2CCN3C(=O)OCC3C2)cc1F (single isomer, unassigned) [Example 420]"
6,620,"C[C@H]1CCC(c2ccccc2)S(=O)(=O)N1Cc1ccc(OC[C@@H]2CCC(=O)N2)cc1 (single isomer, unassigned) [Example 454]"
